Measurements published in patent US20180000089A1, “NOVEL MICROBIOCIDES” (Syngenta Participations AG, priority 2015, published 2018).

Assays:
[1] = tested on: Mycosphaerella graminicola (Septoria tritici); experiment: Mycosphaerella graminicola (Septoria tritici) / liquid culture (Septoria blotch); assay type: cell-based; conditions: Zymoseptoria tritici, PDB, 24° C., inhibition of growth determined photometrically 4-5 days after application, read-out: disease control
Description: 12 Mycosphaerella graminicola (Septoria tritici)/Liquid Culture (Septoria Blotch): Conidia of the fungus from cryogenic storage were directly mixed into nutrient broth (PDB potato dextrose broth). After placing a DMSO solution of test compound into a 96-well microtiter plate at an application rate of 200 ppm, the nutrient broth containing the fungal spores was added. The test plates were incubated at 24° C. and the inhibition of growth was determined photometrically 4-5 days after application.

Pythium ultimum = Pythium ultimum / liquid culture (seedling damping off); assay type: cell-based; conditions: Globisporangium ultimum, potato dextrose broth, 24° C., inhibition of growth determined photometrically 2-3 days after application, read-out: disease control
Description: 8 Pythium ultimum/Liquid Culture (Seedling Damping Off) Mycelia fragments and oospores of a newly grown liquid culture of the fungus were directly mixed into nutrient broth (potato dextrose broth). After placing a DMSO solution of test compound into a 96-well format microtiter plate at an application rate of 200 ppm, the nutrient broth containing the fungal mycelia/spore mixture was added. The test plates were incubated at 24° C. and the inhibition of growth was determined photometrically 2-3 days after application.

[2] = tested on: Botryotinia fuckeliana (Botrytis cinerea); experiment: Botryotinia fuckeliana (Botrytis cinerea) / liquid culture (gray mould); assay type: cell-based; conditions: Vogels broth, 24° C., inhibition of growth determined photometrically 3-4 days after application, read-out: disease control
Description: 9 Botryotinia fuckeliana (Botrytis cinerea)/liquid culture (Gray mould): Conidia of the fungus from cryogenic storage were directly mixed into nutrient broth (Vogels broth). After placing a DMSO solution of test compound into a 96-well microtiter plate at an application rate of 200 ppm, the nutrient broth containing the fungal spores was added. The test plates were incubated at 24° C. and the inhibition of growth was determined photometrically 3-4 days after application.

Plasmopara viticola = experiment: whole plant or invertebrate; assay type: in vivo; conditions: foliar, read-out: disease control
Sclerotinia sclerotiorum = Sclerotinia sclerotiorum / liquid culture (cottony rot); assay type: cell-based; conditions: PDB, 24° C., inhibition of growth determined visually 3-4 days after application, read-out: disease control
Description: 17 Sclerotinia sclerotiorum/liquid culture (cottony rot): Mycelia fragments of a newly grown liquid culture of the fungus were directly mixed into nutrient broth (PDB potato dextrose broth). After placing a (DMSO) solution of the test compounds into a microtiter plate (96-well format) the nutrient broth containing the fungal material was added. The test plates were incubated at 24° C. and the inhibition of growth was determined visually 3-4 days after application.

Alternaria solani = Alternaria solani / tomato / leaf disc (early blight); assay type: in vivo; conditions: 200 ppm; tomato leaf disks cv. Baby, inoculated 2 days after application; assessed 5-7 days after application vs untreated
Description: 6 Alternaria solani/Tomato/Leaf Disc (Early Blight) Tomato leaf disks cultivated variety (cv.) Baby were placed on agar in multiwell plates (24-well format) and sprayed with the formulated test compound diluted in water at an application rate of 200 ppm. The leaf disks were inoculated with a spore suspension of the fungus 2 days after application. The inoculated leaf disks were incubated at 23° C./21° C.

[3] = tested on: Glomerella lagenarium (Colletotrichum Lagenarium); experiment: Glomerella lagenarium (Colletotrichum lagenarium) / liquid culture (anthracnose); assay type: cell-based; conditions: Colletotrichum orbiculare, PDB, 24° C., inhibition of growth measured photometrically 3-4 days after application, read-out: disease control
Description: 10 Glomerella lagenarium (Colletotrichum Lagenarium)/Liquid Culture (Anthracnose): Conidia of the fungus from cryogenic storage were directly mixed into nutrient broth (PDB potato dextrose broth). After placing a DMSO solution of test compound into a 96-well microtiter plate at an application rate of 200 ppm, the nutrient broth containing the fungal spores was added. The test plates were incubated at 24° C. and the inhibition of growth was measured photometrically 3-4 days after application.

[4] = tested on: Mycosphaerella arachidis (Cercospora arachidicola); experiment: Mycosphaerella arachidis (Cercospora arachidicola) / liquid culture (early leaf spot); assay type: cell-based; conditions: PDB, 24° C., inhibition of growth determined photometrically 4-5 days after application, read-out: disease control
Description: 11 Mycosphaerella arachidis (Cercospora arachidicola)/Liquid Culture (Early Leaf Spot): Conidia of the fungus from cryogenic storage were directly mixed into nutrient broth (PDB potato dextrose broth). After placing a DMSO solution of test compound into a 96-well microtiter plate at an application rate of 200 ppm, the nutrient broth containing the fungal spores was added. The test plates were incubated at 24° C. and the inhibition of growth was determined photometrically 4-5 days after application.

[5] = tested on: Monographella nivalis (Microdochium nivale); experiment: Monographella nivalis (Microdochium nivale) / liquid culture (foot rot cereals); assay type: cell-based; conditions: PDB, 24° C., inhibition of growth determined photometrically 4-5 days after application, read-out: disease control
Description: 14 Monographella nivalis (Microdochium nivale)/liquid culture (foot rot cereals): Conidia of the fungus from cryogenic storage were directly mixed into nutrient broth (PDB potato dextrose broth). After placing a DMSO solution of test compound into a 96-well microtiter plate at an application rate of 200 ppm, the nutrient broth containing the fungal spores was added. The test plates were incubated at 24° C. and the inhibition of growth was determined photometrically 4-5 days after application.

Gaeumannomyces Graminis = experiment: Gaeumannomyces graminis / liquid culture (take-all of cereals); assay type: cell-based; conditions: PDB, 24° C., inhibition of growth determined photometrically 4-5 days after application, read-out: disease control
Description: 13 Gaeumannomyces Graminis/Liquid Culture (Take-all of Cereals): Mycelial fragments of the fungus from cryogenic storage were directly mixed into nutrient broth (PDB potato dextrose broth). […] The test plates were incubated at 24° C. and the inhibition of growth was determined photometrically 4-5 days after application.

Fusarium culmorum = experiment: microbe, parasite or virus in culture; assay type: cell-based; conditions: read-out: disease control
[6] = tested on: Thanatephorus cucumeris (Rhizoctonia solani); experiment: Thanatephorus cucumeris (Rhizoctonia solani) / liquid culture (foot rot, damping-off); assay type: cell-based; conditions: PDB, 24° C., inhibition of growth determined photometrically 3-4 days after application, read-out: disease control
Description: 16 Thanatephorus cucumeris (Rhizoctonia solani)/liquid culture (foot rot, damping-off): Mycelia fragments of a newly grown liquid culture of the fungus were directly mixed into nutrient broth (PDB potato dextrose broth). After placing a DMSO solution of the test compounds into a 96-well microtiter plate at an application rate of 200 ppm, the nutrient broth containing the fungal material was added. The test plates were incubated at 24° C. and the inhibition of growth was determined photometrically 3-4 days after application.

[7] = tested on: Magnaporthe grisea (Pyricularia oryzae); assay type: in vivo; conditions: 200 ppm; rice leaf segments cv. Ballila, inoculated 2 days after application; assessed 5-7 days after application vs untreated
Pyrenophora teres = Pyrenophora teres / barley / leaf disc preventative (net blotch); assay type: in vivo; conditions: 200 ppm; barley leaf segments cv Hasso, inoculated two days after application; assessed 5-7 days after application vs untreated
Description: 5 Pyrenophora teres/Barley/Leaf Disc Preventative (Net Blotch): Barley leaf segments cv Hasso were placed on agar in a 24-well plate and sprayed with formulated test compound diluted in water at an application rate of 200 ppm. The leaf segments were inoculated with a spore suspension of the fungus two days after application of the test solution. The inoculated leaf segments were incubated at 20° C. and 65% relative humidity under a light regime of 12/12 h (light/dark) in a climate cabinet and the activity of a compound was assessed as disease control compared to untreated when an appropriate level of disease damage appears in untreated check leaf segments (5-7 days after application).

Row | SMILES | inhibition of growth at 200 ppm [1] [%] | melting point [°C] | inhibition of growth at 200 ppm (Pythium ultimum) [%] | inhibition of growth at 200 ppm [2] [%] | pest or weed control at 200 ppm (Plasmopara viticola) [%] | inhibition of growth at 200 ppm (Sclerotinia sclerotiorum) [%] | disease control (Alternaria solani) | inhibition of growth at 200 ppm [3] [%] | inhibition of growth at 200 ppm [4] [%] | inhibition of growth at 200 ppm [5] [%] | inhibition of growth at 200 ppm (Gaeumannomyces Graminis) [%] | inhibition of growth at 200 ppm (Fusarium culmorum) [%] | inhibition of growth at 200 ppm [6] [%] | disease control [7] | disease control (Pyrenophora teres)
1 | OB1OCc2ccc(-c3ccccc3)cc21 [Compound 1, 1-hydroxy-6-phenyl-3H-2,1-benzoxaborole] | ≥ 80 | 140 to 150 | ≥ 80 | ≥ 80 | ≥ 80 | ≥ 80 | at least 80% | ≥ 80 | ≥ 80 | ≥ 80 | ≥ 80 |  |  |  | 
2 | OB1OCc2cc(Cl)c(-c3ccccc3)cc21 [Compound 3, 5-chloro-1-hydroxy-6-phenyl-3H-2,1-benzoxaborole] | ≥ 80 | 135 to 145 | ≥ 80 | ≥ 80 | ≥ 80 | ≥ 80 |  | ≥ 80 | ≥ 80 | ≥ 80 | ≥ 80 | ≥ 80 | ≥ 80 |  | 
3 | Cc1ccccc1-c1cc2c(cc1Cl)COB2O [Compound 4] | ≥ 80 |  | ≥ 80 |  | ≥ 80 |  |  | ≥ 80 |  |  |  |  | ≥ 80 |  | 
4 | Cc1cccc(-c2cc3c(cc2Cl)COB3O)c1 [Compound 5] | ≥ 80 |  | ≥ 80 |  |  |  |  | ≥ 80 |  |  |  | ≥ 80 | ≥ 80 |  | 
5 | Cc1ccc(-c2cc3c(cc2Cl)COB3O)cc1 [Compound 6] | ≥ 80 |  | ≥ 80 |  |  |  |  | ≥ 80 |  |  |  | ≥ 80 | ≥ 80 |  | 
6 | COc1ccccc1-c1cc2c(cc1Cl)COB2O [Compound 7, 5-chloro-1-hydroxy-6-(2-methoxyphenyl)-3H-2,1-benzoxaborole] | ≥ 80 | 90 to 105 | ≥ 80 |  | ≥ 80 |  |  | ≥ 80 |  |  |  | ≥ 80 | ≥ 80 |  | 
7 | COc1ccc(-c2cc3c(cc2Cl)COB3O)cc1 [Compound 8, 5-chloro-1-hydroxy-6-(4-methoxyphenyl)-3H-2,1-benzoxaborole] | ≥ 80 | 105 to 115 | ≥ 80 |  |  |  |  | ≥ 80 |  | ≥ 80 | ≥ 80 |  | ≥ 80 |  | 
8 | OB1OCc2cc(F)c(-c3ccccc3)cc21 [Compound 9] | ≥ 80 | 142 to 152 | ≥ 80 | ≥ 80 | ≥ 80 | ≥ 80 |  | ≥ 80 | ≥ 80 | ≥ 80 | ≥ 80 | ≥ 80 |  | at least 80% | 
9 | OB1OCc2cc(F)c(-c3ccc(F)cc3)cc21 [Compound 10] | ≥ 80 | 161 to 163 | ≥ 80 | ≥ 80 | ≥ 80 | ≥ 80 |  | ≥ 80 | ≥ 80 | ≥ 80 | ≥ 80 | ≥ 80 |  |  | at least 80%
10 | OB1OCc2cc(F)c(-c3ccc(Cl)cc3Cl)cc21 [Compound 28] | ≥ 80 |  |  | ≥ 80 |  | ≥ 80 |  |  | ≥ 80 |  | ≥ 80 |  | ≥ 80 |  | 
11 | COc1ccc(Cl)cc1-c1cc2c(cc1Cl)COB2O [Compound 31] | ≥ 80 |  | ≥ 80 | ≥ 80 |  | ≥ 80 |  | ≥ 80 | ≥ 80 | ≥ 80 |  | ≥ 80 | ≥ 80 |  | 
